Measurements reported in patent US7238689B2, “Isoxazoline derivative and herbicide comprising the same as active ingredient” (Ihara Chemical Industry Co., Ltd., priority 2001, dated 2007).

Legend:
Assay type in all cases: in vivo
Parameters in all cases: scale not given here
[1] = tested on: Setaria viridis (L.) Beauv.; assay: Herbicidal effect by upland field soil treatment; details: active ingredient 1000 g/ha, examined at 21st day from treatment
Description: (§1) An upland field soil was filled in a plastic pot of 80 cm^2. Seeds of Echinochloa crus-galli (L.) Beauv. var. crusgalli and Setaria viridis (L.) Beauv. were sowed, followed by covering with the same soil. […] Then, breeding was made in a greenhouse, and the herbicidal effect of each wettable powder was examined at the 21st day from the treatment in accordance with the standard shown in Table 21.

[2] = tested on: Echinochloa crus-galli (L.) Beauv. var. crusgalli; assay: Herbicidal effect by upland field soil treatment; details: active ingredient 1000 g/ha, examined at 21st day from treatment
Description: as §1

[3] = tested on: Monochoria vaginalis (Murm. f.) Presl var. plantaginea (Roxb.) Solms-Laub.; assay: Herbicidal effect by paddy field soil treatment; details: wettable powder, active ingredient 1000 g/ha, examined at the 21st day from the treatment
In short: (§2)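 Seeds sown in puddled paddy soil under 3 cm of water; the next day wettable powders diluted in water were dropped onto the water surface at 1,000 g active ingredient/ha. Plants grown in a greenhouse, with herbicidal effect scored on day 21 against a rating standard.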

[4] = tested on: Echinochloa oryzicola Vasing; assay: Herbicidal effect by paddy field soil treatment; details: wettable powder, active ingredient 1000 g/ha, examined at the 21st day from the treatment
In short: as §2

[5] = tested on: Setaria viridis (L.) Beauv.; assay: Herbicidal effect by upland foliage treatment; details: active ingredient 1000 g/ha, examined at 14th day from treatment
Protocol: (§3) A sand was filled in a plastic pot of 80 cm^2. Seeds of Echinochloa crus-galli (L.) Beauv. var. crus-galli and Setaria viridis (L.) Beauv. were sowed. Breeding was made in a greenhouse for 2 weeks. Wettable powders produced in accordance with the Formulation 1 were diluted with water and sprayed on the whole foliage of plants from above the plants using a small sprayer in an amount of 1,000 liters per 1 hectare so that the amount of each active ingredient became 1,000 g per 1 hectare. Then, breeding was made in the greenhouse, and the herbicidal effect of each wettable powder was examined at the 14th day from the treatment in accordance with the standard shown in Table 21.

[6] = tested on: Echinochloa crus-galli (L.) Beauv. var. crus-galli; assay: Herbicidal effect by upland foliage treatment; details: active ingredient 1000 g/ha, examined at 14th day from treatment
Protocol: as §3

| Compound | herbicidal effect (index per standard of Table 21), Setaria viridis (L.) Beauv. [1] | herbicidal effect (index per standard of Table 21), Echinochloa curs-galli (L.) Beauv. Var. crus-galli [2] | Herbicidal effect index, Monochoria vaginalis (Burm. F.) Presl var. plantaginea (Roxb.) Solms-Laub. [3] | Herbicidal effect index, Echinochloa oryzicola Vasing [4] | herbicidal effect (index per standard of Table 21), Setaria viridis (L.) Beauv. [5] | herbicidal effect (index per standard of Table 21), Echinochloa curs-galli (L.) Beauv. Var. crus-galli [6] |
| --- | --- | --- | --- | --- | --- | --- |
| 5,5-dimethyl-[(4-methoxy-6-trifluoromethylpyrimidin-5-yl)-methylsulfonyl]-2-isoxazoline [8-0001] | 5 | 5 | 5 | 5 | 4 | 5 |
| Cc1ccsc1CS(=O)(=O)C1=NOC(C)(C)C1 [1-0001] | 5 | 5 | 5 | 5 | 4 | 5 |
| CC1(C)CC(S(=O)(=O)Cc2sccc2Cl)=NO1 [1-0004] | 5 | 5 | 5 | 5 | 4 | 5 |
| CC1(C)CC(S(=O)(=O)Cc2ccsc2)=NO1 [2-0003] | 5 | 5 | 5 | 5 | 4 | 5 |
| COc1cscc1CS(=O)(=O)C1=NOC(C)(C)C1 [2-0004] | 5 | 5 | 5 | 5 | 4 | 5 |
| CC(=O)c1c(C)sc(C)c1CS(=O)(=O)C1=NOC(C)(C)C1 [2-0008] | 5 | 5 | 5 | 5 | 5 | 5 |
| COC(=O)c1c(Cl)sc(Cl)c1CS(=O)(=O)C1=NOC(C)(C)C1 [2-0011] | 4 | 5 | 5 | 5 | 4 | 5 |
| Cn1ncc(CS(=O)(=O)C2=NOC(C)(C)C2)c1Cl [3-0035] | 5 | 5 | 5 | 5 | 4 | 4 |
| Cc1nn(C)c(C)c1CS(=O)(=O)C1=NOC(C)(C)C1 [3-0036] | 5 | 5 |  |  | 4 | 4 |
| Cc1nn(C)c(Cl)c1CS(=O)(=O)C1=NOC(C)(C)C1 [3-0037] | 5 | 5 | 5 | 5 | 4 | 5 |
| Cn1nc(Cl)c(CS(=O)(=O)C2=NOC(C)(C)C2)c1Cl [3-0038] | 5 | 5 | 5 | 5 | 5 | 5 |
| Cn1nc(C(F)(F)F)c(CS(=O)(=O)C2=NOC(C)(C)C2)c1Cl [3-0039] | 5 | 5 | 5 | 5 | 5 | 5 |
| CCOc1c(CS(=O)(=O)C2=NOC(C)(C)C2)c(C(F)(F)F)nn1C [3-0044] | 5 | 5 | 5 | 5 | 4 | 5 |
| Cn1nc(C(F)(F)F)c(CS(=O)(=O)C2=NOC(C)(C)C2)c1OC1CCCCC1 [3-0049] | 5 | 5 | 5 | 5 | 4 | 4 |
| CCn1nc(C(F)(F)F)c(CS(=O)(=O)C2=NOC(C)(C)C2)c1Cl [3-0073] | 5 | 5 | 5 | 5 | 4 | 5 |
| CCn1nc(Cl)c(CS(=O)(=O)C2=NOC(C)(C)C2)c1C(F)(F)F [3-0074] | 5 | 5 | 5 | 5 | 4 | 5 |
| CC(C)n1nc(Cl)c(CS(=O)(=O)C2=NOC(C)(C)C2)c1C(F)(F)F [3-0076] |  |  |  |  | 4 | 5 |
| CCCn1nc(C(F)(F)F)c(CS(=O)(=O)C2=NOC(C)(C)C2)c1Cl [3-0077] |  |  |  |  | 4 | 5 |
| CC1(C)CC(S(=O)(=O)Cc2c(C(F)(F)F)nn(CC3CC3)c2Cl)=NO1 [3-0092] |  |  |  |  | 4 | 4 |
| C=CCn1nc(C(F)(F)F)c(CS(=O)(=O)C2=NOC(C)(C)C2)c1Cl [3-0104] |  |  |  |  | 4 | 5 |
| C=CCn1nc(Cl)c(CS(=O)(=O)C2=NOC(C)(C)C2)c1C(F)(F)F [3-0105] |  |  |  |  | 4 | 5 |
| C#CCn1nc(C(F)(F)F)c(CS(=O)(=O)C2=NOC(C)(C)C2)c1Cl [3-0106] |  |  |  |  | 4 | 5 |
| C#CCn1nc(Cl)c(CS(=O)(=O)C2=NOC(C)(C)C2)c1C(F)(F)F [3-0107] |  |  |  |  | 5 | 5 |
| Cc1c(CS(=O)(=O)C2=NOC(C)(C)C2)oc2ccccc12 [10-0017] | 5 | 5 | 5 | 5 |  |  |
| Cn1c(CS(=O)(=O)C2=NOC(C)(C)C2)c(Cl)c2ccccc21 [10-0018] | 5 | 5 | 5 | 5 |  |  |
